# Test results published in patent US9072734B2, “Quaternary ammonium salt compounds” (Teijin Pharma Limited, priority 2009, dated 2015).
# Where a name gives a salt, the structure may show the parent alone.
# Tests used:
# [1] = target: T1, human β2 adrenergic receptor (Homo sapiens, UniProt P07550); test: Whole-cell cAMP Flashplate assay using CHO-K1 cells stably expressing human β2 adrenergic receptor; type: cell-based; conditions: cAMP production
# T1 construct: expressed in transfected cells; host or cells: CHO-K1
# [2] = target: T2, human M3 muscarinic receptor (Homo sapiens, UniProt P20309); test: Inhibitory effect on methacholine-induced calcium influx, FLIPR assay, CHO-K1 cells stably expressing the human M3 muscarinic receptor; type: cell-based; conditions: inhibition of calcium influx induced by methacholine
# T2 construct: expressed in transfected cells; host or cells: CHO-K1
# From the text: Muscarinic receptor subtypes (M1, M3 and M5 receptors), which couple to Gq proteins, activate the phospholipase C (PLC) pathway upon agonist binding to the receptor. As a result, the activated PLC hydrolyzes phosphatidyl inositol diphosphate (PIP2) to diacyl glycerol (DAG) and […] (IP3), which in turn generates calcium release from intracellular stores, i.e., endoplasmic and sarcoplasmic reticula. By utilizing FLIPR (Molecular Devices, Inc.) assay in which a calcium sensitive dye (Component A) is used that fluoresces when free calcium binds, the increase in intracellular calcium is measured on the basis of the change in the fluorescence intensity.
# Methacholine was added to CHO-K1 cells stably expressing the human M3 muscarinic receptor to induce calcium influx and evaluate the inhibitory effect of test compounds. In the experiment, a FLIPR Calcium assay kit (Molecular Devices, Inc.) was used.
# CHO-K1 cells stably expressing the human M3 muscarinic receptor suspended in Ham's F-12 media (Invitrogen, Co.) containing 10% fetal bovine serum (FBS) were seeded into 96-well FLIPR plates at a volume of 100 μL/well. Next day, 60 μL/well of Non-wash-dye solution (Hank's buffered salt solution, HBSS, containing 20 mM HEPES and 6.5 mM probenecid) was added to the cells, which were then incubated for an hour at 37° C. in the presence of 5% carbon dioxide. 20 μL of 10 concentrations of test compound solutions (HBSS containing 1% DMSO, 20 mM HEPES, 2.5 mM probenecid and 0.05% bovine serum albumin, BSA) prepared at concentrations in a range of 0.01-1000 nM with 2-fold serial dilution) were added, followed by incubation for 180 seconds. Then, 20 μL of 30 nM methacholine solution (HBSS containing 20 mM HEPES, 2.5 mM probenecid and 0.05% bovine serum albumin, BSA) was added, and fluorescence intensity was traced by the intracellular calcium influx measuring device FLIPR 96 (Molecular Devices, Inc.) for 170 seconds. The difference between the lowest and the highest values of the fluorescence intensity (FI) over the period of the measurement was used as a measured value. The percentages of inhibition by the test compounds were calculated according to the following formula from the measured value of the methacholin-added and test compound non-added sample (FIpositive), the measured value of the methacholin non-added and test compound non-added sample (FInegative), and the measured value of the methacholin-added and test compound-added sample (FItest). (%) Percentage of inhibition by test compound=[(1−(FItest−FInegative)/(FIpositive−FInegative)]×100
# The 50% inhibitory concentrations (IC50 values) of test compounds were analyzed by a four-parameter logistic model using XLfit4 (IDBS, Ltd.) for the percentage of the inhibition by different concentrations of test compounds.
# T2 sequence (P20309 whole entry): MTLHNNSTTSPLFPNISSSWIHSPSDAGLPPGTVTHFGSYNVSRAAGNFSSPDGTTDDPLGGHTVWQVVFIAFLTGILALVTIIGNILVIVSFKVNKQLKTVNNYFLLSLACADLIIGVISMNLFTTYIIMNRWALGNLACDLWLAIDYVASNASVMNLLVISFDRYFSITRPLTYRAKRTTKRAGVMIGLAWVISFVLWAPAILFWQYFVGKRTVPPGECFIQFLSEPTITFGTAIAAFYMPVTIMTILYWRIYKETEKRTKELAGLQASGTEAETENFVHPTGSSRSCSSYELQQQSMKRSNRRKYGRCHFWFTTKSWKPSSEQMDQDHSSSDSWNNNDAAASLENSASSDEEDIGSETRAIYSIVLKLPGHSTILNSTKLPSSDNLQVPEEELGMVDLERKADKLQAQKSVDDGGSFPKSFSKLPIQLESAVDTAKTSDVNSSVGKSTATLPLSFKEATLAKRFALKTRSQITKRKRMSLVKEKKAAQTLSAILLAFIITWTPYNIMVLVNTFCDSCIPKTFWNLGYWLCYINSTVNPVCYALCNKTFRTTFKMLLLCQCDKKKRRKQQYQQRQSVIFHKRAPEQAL
# T1 sequence (P07550 whole entry): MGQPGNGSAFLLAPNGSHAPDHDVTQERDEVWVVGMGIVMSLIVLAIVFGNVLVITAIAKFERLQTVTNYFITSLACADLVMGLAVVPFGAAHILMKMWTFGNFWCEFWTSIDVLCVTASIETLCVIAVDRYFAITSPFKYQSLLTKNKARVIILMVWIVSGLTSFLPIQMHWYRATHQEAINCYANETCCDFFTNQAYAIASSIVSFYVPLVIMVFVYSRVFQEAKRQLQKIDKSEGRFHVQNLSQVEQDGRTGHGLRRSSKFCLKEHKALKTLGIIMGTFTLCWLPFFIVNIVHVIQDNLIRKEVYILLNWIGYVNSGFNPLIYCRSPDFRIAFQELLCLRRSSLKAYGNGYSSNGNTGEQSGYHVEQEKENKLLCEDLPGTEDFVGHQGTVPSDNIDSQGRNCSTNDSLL
EC50 [1] [nM],IC50 [2] [nM],SMILES
4.8,13.6,"C[N+]1(C)CCC(OC(=O)Nc2cc(CCCC(=O)Nc3ccc(CNC[C@H](O)c4ccc(O)c5[nH]c(=O)ccc45)c(Cl)c3)ccc2-c2ccccc2)CC1 [Example 29, 4-({[5-(3-{[3-chloro-4-({[(2R)-2-hydroxy-2-(8-hydroxy-2-oxo-1,2-dihydroquinolin-5-yl)ethyl]amino}methyl)phenyl]carbamoyl}propyl)-2-phenylphenyl]carbamoyl}oxy)-1,1-dimethylpiperidin-1-ium trifluoroacetate]"
6.6,11.7,"C[N+]1(C)CCC(OC(=O)Nc2cc(CCCC(=O)Nc3ccc(CNC[C@H](O)c4ccc(O)c5[nH]c(=O)ccc45)cn3)ccc2-c2ccccc2)CC1 [Example 24, 4-({[5-(3-{[5-({[(2R)-2-hydroxy-2-(8-hydroxy-2-oxo-1,2-dihydroquinolin-5-yl)ethyl]amino}methyl)pyridin-2-yl]carbamoyl}propyl)-2-phenylphenyl]carbamoyl}oxy)-1,1-dimethylpiperidin-1-ium trifluoroacetate]"
6.2,12.9,"COc1cc(CNC[C@H](O)c2ccc(O)c3[nH]c(=O)ccc23)ccc1NC(=O)CCc1ccc(-c2ccccc2)c(NC(=O)O[C@@H]2C[C@@H]3[C@H]4O[C@H]4[C@H](C2)[N+]3(C)C)c1 [Example 41, (1R,2R,4S,5S,7S)-7-({[5-(2-{[4-({[(2R)-2-hydroxy-2-(8-hydroxy-2-oxo-1,2-dihydroquinolin-5-yl)ethyl]amino}methyl)-2-methoxyphenyl]carbamoyl}ethyl)-2-phenylphenyl]carbamoyl}oxy)-9,9-dimethyl-3-oxa-9-azatricyclo[3.3.1.0^2,4]nonan-9-ium trifluoroacetate]"
0.5,12.9,"C[N+]1(C)CCC(OC(=O)Nc2cc(CCCC(=O)Nc3ccc(CNC[C@H](O)c4ccc(O)c5[nH]c(=O)ccc45)cc3Br)ccc2-c2ccccc2)CC1 [Example 30, 4-({[5-(3-{[2-bromo-4-({[(2R)-2-hydroxy-2-(8-hydroxy-2-oxo-1,2-dihydroquinolin-5-yl)ethyl]amino}methyl)phenyl]carbamoyl}propyl)-2-phenylphenyl]carbamoyl}oxy)-1,1-dimethylpiperidin-1-ium trifluoroacetate]"
8.7,25.1,"C[N+]1(C)CCC(OC(=O)Nc2cc(CNC(=O)COc3ccc(CNC[C@H](O)c4ccc(O)c5[nH]c(=O)ccc45)cc3)ccc2-c2ccccc2)CC1 [Example 81, 4-({[5-({2-[4-({[(2R)-2-hydroxy-2-(8-hydroxy-2-oxo-1,2-dihydroquinolin-5-yl)ethyl]amino}methyl)phenoxy]acetamide}methyl)-2-phenylphenyl]carbamoyl}oxy)-1,1-dimethylpiperidin-1-ium trifluoroacetate]"
4.6,22.1,"C[N+]1(C)[C@@H]2C[C@@H](OC(=O)Nc3cc(CCCC(=O)Nc4ccc(CNC[C@H](O)c5ccc(O)c6[nH]c(=O)ccc56)cc4)ccc3-c3ccccc3)C[C@H]1[C@@H]1O[C@@H]12 [Example 33, (1R,2R,4S,5S,7S)-7-({[5-(3-{[4-({[(2R)-2-hydroxy-2-(8-hydroxy-2-oxo-1,2-dihydroquinolin-5-yl)ethyl]amino}methyl)phenyl]carbamoyl}propyl)-2-phenylphenyl]carbamoyl}oxy)-9,9-dimethyl-3-oxa-9-azatricyclo[3.3.1.0^2,4]nonan-9-ium trifluoroacetate]"
2.6,34.3,"C[N+]1(C)CCC(OC(=O)Nc2cc(CCCC(=O)Nc3ccc4cc(CNC[C@H](O)c5ccc(O)c6[nH]c(=O)ccc56)ccc4c3)ccc2-c2ccccc2)CC1 [Example 23, 4-({[5-(3-{[6-({[(2R)-2-hydroxy-2-(8-hydroxy-2-oxo-1,2-dihydroquinolin-5-yl)ethyl]amino}methyl)naphthalen-2-yl]carbamoyl}propyl)-2-phenylphenyl]carbamoyl}oxy)-1,1-dimethylpiperidin-1-ium trifluoroacetate]"
4.3,27.1,"COc1cc(NC(=O)CCCc2ccc(-c3ccccc3)c(NC(=O)O[C@@H]3C[C@@H]4[C@H]5O[C@H]5[C@H](C3)[N+]4(C)C)c2)ccc1CNC[C@H](O)c1ccc(O)c2[nH]c(=O)ccc12 [Example 36, (1R,2R,4S,5S,7S)-7-({[5-(3-{[4-({[(2R)-2-hydroxy-2-(8-hydroxy-2-oxo-1,2-dihydroquinolin-5-yl)ethyl]amino}methyl)-3-methoxyphenyl]carbamoyl}propyl)-2-phenylphenyl]carbamoyl}oxy)-9,9-dimethyl-3-oxa-9-azatricyclo[3.3.1.0^2,4]nonan-9-ium trifluoroacetate]"
0.9,64.1,"C[N+]1(C)[C@@H]2C[C@@H](OC(=O)Nc3ccc(CCCC(=O)Nc4ccc5cc(CNC[C@H](O)c6ccc(O)c7[nH]c(=O)ccc67)ccc5c4)cc3-c3ccccc3)C[C@H]1[C@@H]1O[C@@H]12 [Example 56, (1R,2R,4S,5S,7S)-7-({[4-(3-{[6-({[(2R)-2-hydroxy-2-(8-hydroxy-2-oxo-1,2-dihydroquinolin-5-yl)ethyl]amino}methyl)naphthalen-2-yl]carbamoyl}propyl)-2-phenylphenyl]carbamoyl}oxy)-9,9-dimethyl-3-oxa-9-azatricyclo[3.3.1.0^2,4]nonan-9-ium trifluoroacetate]"
8.4,16.1,"C[N+]1(C)CCC(OC(=O)Nc2cc(CCCC(=O)Nc3ccc(CNC[C@H](O)c4ccc(O)c5[nH]c(=O)ccc45)cc3)ccc2-c2ccccc2)CC1 [Example 32, 4-({[5-(3-{[4-({[(2R)-2-hydroxy-2-(8-hydroxy-2-oxo-1,2-dihydroquinolin-5-yl)ethyl]amino}methyl)phenyl]carbamoyl}propyl)-2-phenylphenyl]carbamoyl}oxy)-1,1-dimethylpiperidin-1-ium trifluoroacetate]"
25.1,15.7,"C[N+]1(C)CCC(OC(=O)Nc2cc(CCCC(=O)Nc3ccc(CNC[C@H](O)c4ccc(O)c5[nH]c(=O)ccc45)c(C(F)(F)F)c3)ccc2-c2ccccc2)CC1 [Example 31, 4-({[5-(3-{[4-({[(2R)-2-hydroxy-2-(8-hydroxy-2-oxo-1,2-dihydroquinolin-5-yl)ethyl]amino}methyl)-3-(trifluoromethyl)phenyl]carbamoyl}propyl)-2-phenylphenyl]carbamoyl}oxy)-1,1-dimethylpiperidin-1-ium trifluoroacetate]"
4.1,4.9,"C[N+]1(C)CCC(OC(=O)Nc2cc(CCC(=O)Nc3ccc(CNC[C@H](O)c4ccc(O)c5[nH]c(=O)ccc45)cc3F)ccc2-c2ccccc2)CC1 [Example 4, 4-({[5-(2-{[2-fluoro-4-({[2R)-2-hydroxy-2-(8-hydroxy-2-oxo-1,2-dihydroquinolin-5-yl)ethyl]amino}methyl)phenyl]carbamoyl}ethyl)-2-phenylphenyl]carbamoyl}oxy)-1,1-dimethylpiperidin-1-ium trifluoroacetate]"

SMILES,EC50 [1] [nM],IC50 [2] [nM]
"C[N+]1(C)[C@@H]2CC(OC(=O)Nc3cc(CCCC(=O)Nc4ccc(CNC[C@H](O)c5ccc(O)c6[nH]c(=O)ccc56)cc4Cl)ccc3-c3ccccc3)C[C@H]1[C@@H]1O[C@@H]12 (stereo partly drawn) [Example 37, (1R,2R,4S,5S,7S)-7-({[5-(3-{[2-chloro-4-({[(2R)-2-hydroxy-2-(8-hydroxy-2-oxo-1,2-dihydroquinolin-5-yl)ethyl]amino}methyl)phenyl]carbamoyl}propyl)-2-phenylphenyl]carbamoyl}oxy)-9,9-dimethyl-3-oxa-9-azatricyclo[3.3.1.0^2,4]nonan-9-ium trifluoroacetate]",4,18.2
"C[N+]1(C)CCC(OC(=O)Nc2cc(CCC(=O)Nc3ccc(CNC[C@H](O)c4ccc(O)c5[nH]c(=O)ccc45)cc3Cl)ccc2-c2ccccc2)CC1 [Example 9, 4-({[5-(2-{[2-chloro-({[(2R)-2-hydroxy-2-(8-hydroxy-2-oxo-1,2-dihydroquinolin-5-yl)ethyl]amino}methyl)phenyl]carbamoyl}ethyl)-2-phenylphenyl]carbamoyl}oxy)-1,1-dimethylpiperidin-1-ium trifluoroacetate]",1.9,10.1
